Data reported in patent US12138256B2, “Treatment of cardiopulmonary disorders” (Bayer Aktiengesellschaft, priority 2021, dated 2024).
“And” between values parts separate entries of the source, which are not always exact repeats. Identical values can stand only once.

How the values were obtained:
[1] = Particle size distribution by laser diffraction with dry dispersion; type: physicochemical; conditions: after micronization, dry measurement (3 or 4 bar)
Experimental: All measurements cited in the above tables were obtained by laser diffraction with dry dispersion using compressed air. Measuring in aqueous suspension with surfactants may lead to smaller particle sizes (×90 up to 1 μm smaller).
The particle size analysis data are usually reported as cumulative undersized distribution by volume. The symbol x is used to denote the particle size, which is defined as diameter of a volume equivalent sphere. Most common characteristic values are calculated from the particle size distribution by interpolation. Frequently used are the particle sizes at the undersize values of 10%, 50% and 90% of the volume distribution, denoted as x10, x50 and x90. x50 is also known as median particle size. The symbol d is widely used to designate the particle size, thus the symbol x may be replaced by the symbol d.

[2] = test system: anesthetized PAH minipigs; experiment: PAH minipig model: intratracheal application of dry powder formulations and different hydrates (PennCentury insufflator); type: in vivo, Göttingen minipig; conditions: for PAP % changes vs. baseline: 375 μg/kg i.t., each animal
Excerpt: After characterization of the effects of comparative example 11 after nebulization of compound solutions, in a further step the effects of crystalline forms of comparative example 11, e.g. sesquihydrate, e.g. example 6e on PAP and BP after inhaled application of different dry powder lactose formulations (table C2.1.8) were studied in anesthetized PAH minipigs.
As reference pure Lactose vehicle was applied in the beginning of each experiment.

rabbit saphenous artery = experiment: Vasorelaxant effect in vitro: phenylephrine-induced contraction of rabbit saphenous artery rings (C-1.1); conditions: mean +/− SEM
Experimental: Rabbits were anaesthetized and sacrificed by intravenous injection of thiopental sodium (about 50 mg/kg) and exsanguinated. The saphenous artery was removed and divided into rings 3 mm wide. The rings were mounted singly on in each case a pair of triangular hooks open at the end and made of 0.3 mm-thick special wire (Remanium®). Each ring was placed under an initial tension in 5 ml organ baths with Krebs-Henseleit solution which was at 37° C., was gassed with carbogen and had the following composition: NaCl 119 mM; KCl 4.8 mM; CaCl2)×2 H2O 1 mM; MgSO4×7 H2O 1.4 mM; KH2PO41.2 mM; NaHCO325 mM; glucose 10 mM; bovine serum albumin 0.001%. The force of contraction was detected with Statham UC2 cells, amplified and digitized via A/D converters (DAS-1802 HC, Keithley Instruments, Munich) and recorded in parallel on chart recorders. Contractions were induced by addition of phenylephrine.
The concentration necessary to reduce the contraction reached in the preceding control by 50% was calculated from this (IC50). The standard application volume was 5 μl. The proportion of DMSO in the bath solution corresponded to 0.1%.

O.O=C(O)c1ccc(CCN(CCc2ccccc2OCc2ccc(-c3ccc(C(F)(F)F)cc3)cc2Cl)[C@H]2CCCc3nc(C(=O)O)ccc32)cc1 [8f]
PSD X10 [1]: X10: 0.6 μm,
PSD X50 [1]: X50: 2.4 μm,
PSD X90 [1]: X90: 6.3 μm

O.O=C(O)c1ccc(CCN(CCc2ccccc2OCc2ccc(-c3ccc(C(F)(F)F)cc3)cc2Cl)[C@H]2CCCc3nc(C(=O)O)ccc32)cc1 [8c]
PSD X10 [1]: X10: 0.4 μm,
PSD X50 [1]: X50: 1.8 μm,
PSD X90 [1]: X90: 4.8 μm

O.O=C(O)c1ccc(CCN(CCc2ccccc2OCc2ccc(-c3ccc(C(F)(F)F)cc3)cc2Cl)[C@H]2CCCc3nc(C(=O)O)ccc32)cc1 [example 8b]
PSD X10 [1]: X10: 0.7 μm,
PSD X50 [1]: X50: 1.9 μm,
PSD X90 [1]: X90: 5.0 μm

O.O=C(O)c1ccc(CCN(CCc2ccccc2OCc2ccc(-c3ccc(C(F)(F)F)cc3)cc2Cl)[C@H]2CCCc3nc(C(=O)O)ccc32)cc1 [example 8e]
PSD X10 [1]: X10: 0.7 μm,
PSD X50 [1]: X50: 2.1 μm,
PSD X90 [1]: X90: 6.1 μm

O.O=C(O)c1ccc(CCN(CCc2ccccc2OCc2ccc(-c3ccc(C(F)(F)F)cc3)cc2Cl)[C@H]2CCCc3nc(C(=O)O)ccc32)cc1 [8d]
PSD X10 [1]: X10: 0.5 μm,
PSD X50 [1]: X50: 2.3 μm,
PSD X90 [1]: X90: 9.6 μm

O.O=C(O)c1ccc(CCN(CCc2ccccc2OCc2ccc(-c3ccc(C(F)(F)F)cc3)cc2Cl)[C@H]2CCCc3nc(C(=O)O)ccc32)cc1 [8g]
PSD X10 [1]: X10: 0,5 μm,
PSD X50 [1]: X50: 1.8 μm,
PSD X90 [1]: X90: 3.9 μm

O.O.O.O=C(O)c1ccc(CCN(CCc2ccccc2OCc2ccc(-c3ccc(C(F)(F)F)cc3)cc2Cl)[C@H]2CCCc3nc(C(=O)O)ccc32)cc1.O=C(O)c1ccc(CCN(CCc2ccccc2OCc2ccc(-c3ccc(C(F)(F)F)cc3)cc2Cl)[C@H]2CCCc3nc(C(=O)O)ccc32)cc1 [example 6e, (5S)-{[2-(4-Carboxyphenyl)ethyl][2-(2-{[3-chloro-4′-(trifluoromethyl)biphenyl-4-yl]methoxy}phenyl)-ethyl]amino}-5,6,7,8-tetrahydroquinoline-2-carboxylic acid sesquihydrate]
efficacy with regard to PAP reduction as well as systemic BP reduction ([2]; 1.5 mg/4 kg (=375 μg/kg) intratracheally, micronized): comparable efficacy
effect on PAP and BP after i.t. application ([2]; lactose formulation I 7.5 μg/kg, II 22.5 μg/kg, micronized sesquihydrate 375 μg/kg, n=3): decrease of PAP without any effects on BP
time to maximum effect on PAP after i.t. application ([2]; lactose formulation I 7.5 μg/kg, lactose formulation II 22.5 μg/kg, micronized sesquihydrate 375 μg/kg): approximately 80 min
PAP % changes vs. baseline ([2]; time 80): 100.0%
PAP % changes vs. baseline ([2]; time 90, sesquihydrate): 98.9% and 103.6% and 99.8%
PAP % changes vs. baseline ([2]; time 100, sesquihydrate): 99.5% and 101.4% and 97.3%
PAP % changes vs. baseline ([2]; time 110, sesquihydrate): 89.3% and 98.7% and 86.8%
PAP % changes vs. baseline ([2]; time 120, sesquihydrate): 84.0% and 95.6% and 75.7%
PAP % changes vs. baseline ([2]; time 130, sesquihydrate): 78.9% and 93.7% and 70.2%
PAP % changes vs. baseline ([2]; time 140, sesquihydrate): 75.2% and 91.8% and 67.5%
PAP % changes vs. baseline ([2]; time 150, sesquihydrate): 74.0% and 76.0% and 65.4%
PAP % changes vs. baseline ([2]; time 160, sesquihydrate): 71.0% and 79.5% and 65.9%
PAP % changes vs. baseline ([2]; time 170, sesquihydrate): 68.5% and 74.3% and 61.5%
PAP % changes vs. baseline ([2]; time 180, sesquihydrate): 63.2% and 80.8% and 62.0%
PAP % changes vs. baseline ([2]; time 190, sesquihydrate): 61.5% and 80.8% and 58.6%
PAP % changes vs. baseline ([2]; time 200, sesquihydrate): 62.3% and 80.3% and 60.2%
PAP % changes vs. baseline ([2]; time 210, sesquihydrate): 61.0% and 80.7% and 59.4%
PAP % changes vs. baseline ([2]; time 220, sesquihydrate): 59.5% and 86.3% and 57.8%
PAP % changes vs. baseline ([2]; time 230, sesquihydrate): 58.6% and 82.6% and 57.8%
PAP % changes vs. baseline ([2]; time 240, sesquihydrate): 59.3% and 81.5% and 57.6%
PAP % changes vs. baseline ([2]; time 250, sesquihydrate): 59.3% and 82.2% and 56.1%
PAP % changes vs. baseline ([2]; time 260, sesquihydrate): 58.8% and 82.7% and 57.6%
PAP % changes vs. baseline ([2]; time 270, sesquihydrate): 59.9% and 78.3% and 55.4%
PAP % changes vs. baseline ([2]; time 280, sesquihydrate): 58.4% and 78.3% and 55.9%
PAP % changes vs. baseline ([2]; time 290, sesquihydrate): 57.4% and 79.6% and 53.9%
PAP % changes vs. baseline ([2]; time 300, sesquihydrate): 60.1% and 78.7% and 54.5%
PAP % changes vs. baseline ([2]; time 310, sesquihydrate): 58.4% and 77.6% and 53.7%
PAP % changes vs. baseline ([2]; time 320, sesquihydrate): 61.8% and 76.3% and 55.1%
PAP % changes vs. baseline ([2]; time 330, sesquihydrate): 61.3% and 74.8% and 53.0%

O=C(O)CCCCN(CCc1ccccc1OCc1ccc(CCc2ccccc2)cc1)Cc1ccc(C(=O)O)cc1 [comparative example 1 (Cinaciguat)]
% contraction (PE-induced contraction of rabbit saphenous artery) (rabbit saphenous artery; 10^−6 M/L, incubation time 0.5 h): 19 ± 6.1%
% contraction (PE-induced contraction of rabbit saphenous artery) (rabbit saphenous artery; 10^−7 M/L, incubation time 0.5 h): 28 ± 4.2%
% contraction (PE-induced contraction of rabbit saphenous artery) (rabbit saphenous artery; 10^−7 M/L, incubation time 2.5 h): 33 ± 5.8%
% contraction (PE-induced contraction of rabbit saphenous artery) (rabbit saphenous artery; 10^−8 M/L, incubation time 0.5 h): 54 ± 5.2%
% contraction (PE-induced contraction of rabbit saphenous artery) (rabbit saphenous artery; 10^−8 M/L, incubation time 2.5 h): 48 ± 6.0%
% contraction (PE-induced contraction of rabbit saphenous artery) (rabbit saphenous artery; 10^−9 M/L, incubation time 0.5 h): 85 ± 4.2%
% contraction (PE-induced contraction of rabbit saphenous artery) (rabbit saphenous artery; 10^−9 M/L, incubation time 2.5 h): 75 ± 4.6%
% contraction (PE-induced contraction of rabbit saphenous artery) (rabbit saphenous artery; 10^−10 M/L, incubation time 0.5 h): 101 ± 1.7%
% contraction (PE-induced contraction of rabbit saphenous artery) (rabbit saphenous artery; 10^−10 M/L, incubation time 2.5 h): 93 ± 2.6%
% contraction (PE-induced contraction of rabbit saphenous artery) (rabbit saphenous artery; 10^−11 M/L, incubation time 0.5 h): 97 ± 1.2%

Ethyl 5-{[2-(2-{[3-chloro-4′-(trifluoromethyl)biphenyl-4-yl]methoxy}phenyl)ethyl]amino}-5,6,7,8-tetrahydroquinoline-2-carboxylate [example 8a]
PSD X10 [1]: X10: 0.4 μm,
PSD X50 [1]: X50: 1.7 μm,
PSD X90 [1]: X90: 4.2 μm
